The test system of data set [1] is Human T-cell. The experiment in a line: Inhibition of T-cell proliferation (3H-thymidine, PHA-stimulated). The format is cell-based. The procedure: Mononuclear cells were isolated from venous blood of healthy donors by centrifugation of buffy coat leucocytes atop Ficoll-Paque. The lymphocytes (70-80% T-cells) were suspended in RPMI 1640 medium supplemented with 10% FCS and adjusted to 10^6 cells/ml. […] of this cell suspension were seeded into flat-bottom microtiter wells and stimulated with […] of PHA. Immediately after seeding, the test compounds listed below in Table V were added to yield final concentrations of between 1x10^-11 M -1 x 10^-6 M. All tests were run in the quadruplicates.
After 3 and 4 days, ^3H-thymidine (5 Ci/mmol) was added to wells at a concentration of […]. Cells were pulse-labeled for the last 6 hours of the growth period. Cells were then harvested on to a 96 well filter plate using a cell harvester. After drying at […] under vacuum for 20-30 minutes, 20 µl of scintillor were added and the radioactivity bound to the filters was counted. Values are expressed as percent controls (samples without test compounds). The concentration leading to 50% of control values is determined graphically and given as IC50 (inhibiting concentration) in Table V. TABLE V

The test system of data set [2] is Human T-cells. The experiment in a line: Inhibition of γ-interferon release in PHA-stimulated T-cells (ELISA). It is filed as cell-based.
Data set [3] is described as follows: Calcium tolerance test in mice (highest tolerated dose, body weight). The note with it: daily subcutaneous administration for 4 consecutive days, dose resulting in zero weight gain during 5 day treatment period. The format is in vivo. The source says: Profound changes in calcium homeostasis strongly affect the weight development of mice.
Mice (25-30 g body weight) received daily subcutaneous administrations of the compound for 4 consecutive days. Body weight was registered just before and at the end of a […] treatment period. The "highest tolerated dose" (HTD) is the dose which results in zero weight gain during this treatment period.

Data set [4] relates to Sebaceous cells. The experiment in a line: Inhibition of sebaceous cell proliferation (cell count). The note with it: adult human sebaceous cells in vitro, amount necessary to inhibit proliferation by 50% vs vehicle control.
Data set [5] has as its system HaCaT cell line. The experiment in a line: Inhibition of keratinocyte proliferation (3H-thymidine uptake). The format is cell-based, human. The note with it: HaCaT cells, 3H-thymidine incorporation after 6 days of culture, concentration leading to 50% of control values. (In general: Uptake of a labelled nucleoside into DNA is a usual measure of proliferation.)
Data set [6] deals with HL-60 cells. Put plainly: Induction of HL-60 cell differentiation (NBT reduction). It is filed as cell-based. The note with it: 3 days, concentration leading to 50% of maximal differentiation achieved with 100-1000 nM calcitriol, read-out: ED50 (the source's name).
[7] abbreviates: human lymphocytes (70-80% T-cells) stimulated with PHA, 3H-thymidine after 3 and 4 days.
The mark [8] stands for this setting: human lymphocytes (70-80% T-cells) stimulated with PHA, IFN-g by ELISA on days 3 and 4.

As a reminder, the IC50 is the concentration that gives 50% inhibition. High values mean weaker potency in that assay, low ones greater potency in that assay. For `C=C1/C(=C\C=C2/CCC[C@]3(C)C([C@H](C)C=C=CC(C)(C)O)=CC[C@@H]23)C[C@@H](O)C[C@@H]1O` [1,25-Dihydroxy-16,22R,23-triene-cholecalciferol], the IC50 in data set [1] (setting [7]) was found to be 0.55 nM; in data set [2] (setting [8]) it was 0.05 nM; in data set [5] it was 0.01 nM. Moreover, in data set [3], the HTD is 2.5 µg/kg. Further, in data set [4] (listed as 1a,25-dihydroxy-16,22R,23-triene-cholecalciferol), the ED50 was 1 nM. Also, the EC50 in data set [6] stood at 0.22 nM.

In the case of `C=C1/C(=C\C=C2/CCC[C@]3(C)C([C@H](C)C=C=CC(C)(C)O)=CC[C@@H]23)C[C@@H](O)C[C@@H]1O` [1,25-Dihydroxy-16,22S,23-triene-cholecalciferol], the IC50 is 6 nM in data set [1] (setting [7]), 3 nM in data set [2] (setting [8]) and 40 nM in data set [5]. Besides, the HTD in data set [3] turned out to be 50.0 µg/kg. For the same molecule, the ED50 in data set [4] (listed as 1a,25-dihydroxy-16,22S,23-triene-cholecalciferol) came out at 10 nM. For the same molecule, in data set [6], the EC50 came out at 4.8 nM.

For `C=C1/C(=C\C=C2/CCC[C@]3(C)[C@@H]([C@H](C)CCCC(C)(C)O)CC[C@@H]23)C[C@@H](O)C[C@@H]1O` [1,25-Dihydroxy-cholecalciferol, reference compound], the IC50 in data set [1] (Homo sapiens, T-cell) stood at 10 nM; in data set [2] (Homo sapiens, T-cell), 0.8 nM; in data set [5] (Homo sapiens), 55 nM. Besides, the HTD in data set [3] worked out at 0.5 µg/kg. For the same molecule, in data set [4], the ED50 is 50 nM.

Source of the values: patent EP0796843B1, “1,25-dihydroxy-16,22,23-trisdehydro-cholecalciferol derivatives” (F. HOFFMANN-LA ROCHE AG, priority 1996, dated 1997).
